{"source": "ChEMBL document CHEMBL1201862", "about": "“PubChem BioAssay data set” (2004)", "key": {"[1]": {"biological_target": "T1, Long-chain-fatty-acid--AMP ligase FadD28 (Mycobacterium tuberculosis, UniProt P9WQ59)", "T1 sequence (P9WQ59 whole entry)": "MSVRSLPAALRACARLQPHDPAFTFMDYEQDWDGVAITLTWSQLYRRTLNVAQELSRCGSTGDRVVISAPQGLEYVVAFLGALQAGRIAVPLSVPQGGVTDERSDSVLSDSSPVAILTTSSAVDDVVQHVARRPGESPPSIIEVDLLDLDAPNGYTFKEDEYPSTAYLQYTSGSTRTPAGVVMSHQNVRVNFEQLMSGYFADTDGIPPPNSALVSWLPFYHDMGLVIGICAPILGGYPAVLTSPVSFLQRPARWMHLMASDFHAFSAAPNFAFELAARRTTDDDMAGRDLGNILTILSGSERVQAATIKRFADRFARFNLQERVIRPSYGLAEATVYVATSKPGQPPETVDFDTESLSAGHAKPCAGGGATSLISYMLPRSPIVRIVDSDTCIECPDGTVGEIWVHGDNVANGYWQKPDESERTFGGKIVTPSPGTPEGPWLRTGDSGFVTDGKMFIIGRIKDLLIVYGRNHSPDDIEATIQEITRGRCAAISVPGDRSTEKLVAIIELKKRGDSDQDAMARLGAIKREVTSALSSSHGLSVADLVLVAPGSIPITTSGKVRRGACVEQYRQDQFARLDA", "assay": "Fluorescence polarization aasay to screen for inhibitors that compete for the binding of FadD28 to a bisubstrate Measured in Biochemical System Using Plate Reader - 2147-01_Inhibitor_Dose_CherryPick_Activity.", "assay_type": "functional, Mycobacterium tuberculosis H37Rv"}, "[2]": {"biological_target": "Voltage-gated inwardly rectifying potassium channel KCNH2 (Homo sapiens, UniProt Q12809)", "sequence (Q12809 whole entry)": "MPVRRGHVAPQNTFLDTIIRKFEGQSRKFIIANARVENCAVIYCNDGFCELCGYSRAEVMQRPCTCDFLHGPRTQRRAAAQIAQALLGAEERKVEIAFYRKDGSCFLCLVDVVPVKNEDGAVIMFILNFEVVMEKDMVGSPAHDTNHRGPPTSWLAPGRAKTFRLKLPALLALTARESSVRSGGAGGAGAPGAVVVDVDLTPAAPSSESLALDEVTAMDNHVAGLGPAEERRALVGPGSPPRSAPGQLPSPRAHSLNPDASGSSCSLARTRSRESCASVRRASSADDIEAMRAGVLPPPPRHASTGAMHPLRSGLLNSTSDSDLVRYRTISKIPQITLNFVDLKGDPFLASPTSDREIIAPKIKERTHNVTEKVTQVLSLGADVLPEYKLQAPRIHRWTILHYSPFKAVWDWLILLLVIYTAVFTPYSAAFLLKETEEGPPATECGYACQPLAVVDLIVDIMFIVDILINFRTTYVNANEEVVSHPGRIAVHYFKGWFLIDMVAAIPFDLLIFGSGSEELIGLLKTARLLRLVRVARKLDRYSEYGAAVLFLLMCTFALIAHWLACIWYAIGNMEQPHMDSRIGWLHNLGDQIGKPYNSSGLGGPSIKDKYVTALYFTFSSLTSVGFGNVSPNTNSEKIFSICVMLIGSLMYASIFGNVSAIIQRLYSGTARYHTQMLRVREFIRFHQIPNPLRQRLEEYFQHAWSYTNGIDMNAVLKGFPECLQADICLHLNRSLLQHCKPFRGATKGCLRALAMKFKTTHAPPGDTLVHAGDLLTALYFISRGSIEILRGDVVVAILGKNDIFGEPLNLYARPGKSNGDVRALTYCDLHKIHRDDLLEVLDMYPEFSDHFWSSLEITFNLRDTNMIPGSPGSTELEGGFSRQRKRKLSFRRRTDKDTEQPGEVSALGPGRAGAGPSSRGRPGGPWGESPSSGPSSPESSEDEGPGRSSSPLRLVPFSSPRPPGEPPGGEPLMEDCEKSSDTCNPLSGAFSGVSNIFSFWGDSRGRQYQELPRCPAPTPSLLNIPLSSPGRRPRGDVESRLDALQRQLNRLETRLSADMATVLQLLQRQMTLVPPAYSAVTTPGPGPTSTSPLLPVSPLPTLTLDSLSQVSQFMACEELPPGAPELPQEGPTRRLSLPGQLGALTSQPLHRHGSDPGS", "assay": "concentration-dependent hERG rescue from blockers – cell-based, thallium flux, dose response (AID 2121)", "assay_type": "ADME"}, "[3]": {"tested_on": "Vero", "assay": "cells", "assay_type": "functional", "conditions": "Chlorocebus sabaeus"}, "[4]": {"tested_on": "Vero", "assay": "inhibition of WNV-induced cytopathic effect – cell-based, CPE readout (AID 1621)", "assay_type": "functional", "conditions": "Chlorocebus sabaeus"}, "[5]": {"tested_on": "Vero", "assay": "cells", "assay_type": "functional, cell-based", "conditions": "Chlorocebus sabaeus"}, "[6]": {"biological_target": "Protein-tyrosine kinase 2-beta (Homo sapiens, UniProt Q14289)", "sequence (Q14289 whole entry)": "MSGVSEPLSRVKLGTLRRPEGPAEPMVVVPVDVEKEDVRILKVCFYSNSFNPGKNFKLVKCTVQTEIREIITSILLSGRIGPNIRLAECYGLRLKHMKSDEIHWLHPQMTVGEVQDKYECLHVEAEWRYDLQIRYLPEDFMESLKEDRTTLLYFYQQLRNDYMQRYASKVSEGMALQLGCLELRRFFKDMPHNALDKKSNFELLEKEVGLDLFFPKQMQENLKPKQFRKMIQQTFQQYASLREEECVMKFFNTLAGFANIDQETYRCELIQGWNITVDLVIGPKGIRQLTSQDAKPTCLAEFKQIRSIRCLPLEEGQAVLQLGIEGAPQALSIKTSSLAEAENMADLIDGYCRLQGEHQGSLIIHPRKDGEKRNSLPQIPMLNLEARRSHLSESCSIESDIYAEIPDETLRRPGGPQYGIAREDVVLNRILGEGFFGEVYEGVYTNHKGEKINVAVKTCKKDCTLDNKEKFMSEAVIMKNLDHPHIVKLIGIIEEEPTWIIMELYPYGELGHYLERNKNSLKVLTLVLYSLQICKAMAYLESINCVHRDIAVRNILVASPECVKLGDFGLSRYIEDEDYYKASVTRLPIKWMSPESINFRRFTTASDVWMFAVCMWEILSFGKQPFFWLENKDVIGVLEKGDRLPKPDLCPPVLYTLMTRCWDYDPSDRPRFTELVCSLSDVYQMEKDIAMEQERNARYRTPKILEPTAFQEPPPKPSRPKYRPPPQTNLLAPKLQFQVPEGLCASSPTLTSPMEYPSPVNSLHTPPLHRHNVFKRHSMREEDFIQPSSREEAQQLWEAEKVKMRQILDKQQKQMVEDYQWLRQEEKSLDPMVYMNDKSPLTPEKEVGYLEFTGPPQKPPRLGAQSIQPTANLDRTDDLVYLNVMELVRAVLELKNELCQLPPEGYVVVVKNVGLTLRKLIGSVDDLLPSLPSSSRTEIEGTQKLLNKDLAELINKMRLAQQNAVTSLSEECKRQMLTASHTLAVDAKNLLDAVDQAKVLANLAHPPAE"}, "[7]": {"biological_target": "Aryl hydrocarbon receptor (Homo sapiens, UniProt P35869)", "sequence (P35869 whole entry)": "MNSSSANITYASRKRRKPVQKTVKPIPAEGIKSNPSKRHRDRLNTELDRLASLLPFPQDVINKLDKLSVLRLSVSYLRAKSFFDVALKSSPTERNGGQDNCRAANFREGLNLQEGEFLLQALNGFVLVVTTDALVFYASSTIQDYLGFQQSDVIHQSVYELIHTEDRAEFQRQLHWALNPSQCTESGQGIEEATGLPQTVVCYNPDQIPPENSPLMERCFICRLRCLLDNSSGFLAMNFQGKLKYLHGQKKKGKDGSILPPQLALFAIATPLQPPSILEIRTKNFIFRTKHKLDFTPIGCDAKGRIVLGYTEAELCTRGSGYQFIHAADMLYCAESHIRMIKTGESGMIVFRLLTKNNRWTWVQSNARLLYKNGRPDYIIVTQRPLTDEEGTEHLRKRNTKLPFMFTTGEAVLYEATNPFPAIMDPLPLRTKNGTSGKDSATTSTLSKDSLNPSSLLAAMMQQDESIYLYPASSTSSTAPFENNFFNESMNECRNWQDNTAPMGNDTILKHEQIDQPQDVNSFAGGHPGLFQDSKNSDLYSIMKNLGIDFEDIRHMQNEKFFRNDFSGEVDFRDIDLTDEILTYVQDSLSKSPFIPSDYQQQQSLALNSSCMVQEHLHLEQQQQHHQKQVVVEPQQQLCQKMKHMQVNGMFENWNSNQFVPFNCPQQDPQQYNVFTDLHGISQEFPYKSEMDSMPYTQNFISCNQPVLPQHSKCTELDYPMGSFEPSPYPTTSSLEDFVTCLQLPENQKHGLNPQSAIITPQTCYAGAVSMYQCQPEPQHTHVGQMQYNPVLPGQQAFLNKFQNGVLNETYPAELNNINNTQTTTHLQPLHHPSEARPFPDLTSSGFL", "assay": "Luminescence-based cell-based high throughput dose response assay for activators of the Aryl Hydrocarbon Receptor (AHR). [Related pubchem assays: 2796 (Primary screen (AHR activators in singlicate)), 2845 (Confirmation screen (AHR activators in triplicate)), 434939 (Counterscreen (PXR activators in triplicate)), 2804 (Summary (AHR activators))]", "assay_type": "ADME"}}, "note": "Activity calls are given as the source filed them.", "data": [{"compound": "Cc1nn(-c2cccc3ccccc23)c(O)c1/C=N/c1sc2c(c1C#N)CCC2", "values": [{"measurement": "AC50", "setting": "[1]", "result": "91.8 µM (active)"}, {"measurement": "EC50", "setting": "[2]", "result": "6.13 µM (active)"}]}, {"compound": "Cc1ccc(S(=O)(=O)N(C)C)cc1NC(=O)c1cncc(Br)c1", "values": [{"measurement": "CC50", "setting": "[3]", "result": "> 25 µM (active)"}, {"measurement": "IC50", "setting": "[4]", "result": "32 µM (active)"}, {"measurement": "IC50", "setting": "[5]", "result": "> 25 µM (active)"}]}, {"compound": "COC(=O)Cc1ccc2c3ccccc3n(C)c2c1", "values": [{"measurement": "IC50", "setting": "[6]", "result": "> 69.5 µM (not active)"}]}, {"compound": "COc1ccc(/C=N/NC(=O)c2cccc(NC(=O)c3ccc(F)cc3)c2)c(C(=O)O)c1OC", "values": [{"measurement": "EC50", "setting": "[7]", "result": "5.48 µM (active)"}]}]}
